Assay results: patent US10604526B2, “Chemokine receptor modulators and uses thereof” (RAPT THERAPEUTICS, INC., priority 2016, dated 2020)

Biological target: T1, hCCR4 (Homo sapiens, UniProt P51679)
T1 sequence (P51679 1-360): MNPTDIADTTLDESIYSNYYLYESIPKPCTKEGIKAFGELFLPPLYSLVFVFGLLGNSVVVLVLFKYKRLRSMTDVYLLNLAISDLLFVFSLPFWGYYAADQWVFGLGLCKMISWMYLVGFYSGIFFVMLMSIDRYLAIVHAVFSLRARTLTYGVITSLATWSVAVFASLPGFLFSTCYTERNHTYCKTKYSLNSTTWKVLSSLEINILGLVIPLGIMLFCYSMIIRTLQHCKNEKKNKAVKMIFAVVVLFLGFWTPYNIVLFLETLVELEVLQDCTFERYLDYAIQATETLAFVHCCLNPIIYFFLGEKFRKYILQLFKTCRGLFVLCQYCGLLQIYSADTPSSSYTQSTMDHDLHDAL
Assay: Calcium flux assay
Type: cell-based
Settings: Chem5-hCCR4 cells, CCL22 at EC80 of 1.5 nM, FLIPR Calcium 6 dye; read-out: Potency (IC50)
Summary of the method: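 Chem5 cells expressing hCCR4 were serum-starved for 2 h, loaded with Calcium 6 dye plus 2.5 mM probenecid, then given compound for 1 h at 37 °C (0.5% DMSO). CCL22 was added from a 7.5 nM working solution (5× EC80 of 1.5 nM). IC50 came from ΔF/Fmin (485/525 nm) by 4-parameter fit.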

| IC50 [nM] | Compound |
| --- | --- |
| < 100 | C[C@H](c1ccc(Cl)cc1Cl)n1nc(C#N)c2ncc(N3CC([C@H]4CCCN(Cc5ncc[nH]5)C4)C3)nc21 (single isomer, unassigned) [Example 80] |
| 100 to 500 | C[C@H](c1ccc(Cl)cc1Cl)n1nc(C#N)c2ncc(N3CC([C@@H]4CCCN(Cc5ncc[nH]5)C4)C3)nc21 (single isomer, unassigned) [Example 81] |
| < 100 | COC(=O)NCCN1CCC[C@H](C2CN(c3cnc4c(C)nn([C@H](C)c5ccc(Cl)cc5Cl)c4n3)C2)C1 (single isomer, unassigned) [Example 84] |
| < 100 | COC(=O)NCCN1CCC[C@@H](C2CN(c3cnc4c(C)nn([C@H](C)c5ccc(Cl)cc5Cl)c4n3)C2)C1 (single isomer, unassigned) [Example 85] |
| 100 to 500 | CC(=O)NCCN1CCC[C@@H](C2CN(c3cnc4c(C(F)(F)F)nn([C@H](C)c5ccc(Cl)cc5Cl)c4n3)C2)C1 (single isomer, unassigned) [Example 86] |
| < 100 | CC(=O)NCCN1CCCC(C2CN(c3cnc4c(C(F)(F)F)nn([C@H](C)c5ccc(Cl)cc5Cl)c4n3)C2)C1 (single isomer, unassigned) [Example 87] |
| 100 to 500 | CC(C)C(=O)NCCN1CCC[C@@H](C2CN(c3cnc4c(C(F)(F)F)nn([C@H](C)c5ccc(Cl)cc5Cl)c4n3)C2)C1 (single isomer, unassigned) [Example 88] |
| < 100 | CC(C)C(=O)NCCN1CCC[C@H](C2CN(c3cnc4c(C(F)(F)F)nn([C@H](C)c5ccc(Cl)cc5Cl)c4n3)C2)C1 (single isomer, unassigned) [Example 89] |
| < 100 | Cc1nn([C@H](C)c2ccc(Cl)cc2Cl)c2nc(N3CC([C@H]4CCCN(CCNC(=O)C(C)C)C4)C3)cnc12 (single isomer, unassigned) [Example 90] |
| < 100 | Cc1nn([C@H](C)c2ccc(Cl)cc2Cl)c2nc(N3CC([C@@H]4CCCN(CCNC(=O)C(C)C)C4)C3)cnc12 (single isomer, unassigned) [Example 91] |
| < 100 | CC(=O)NCCN1CCC[C@H](C2CN(c3cnc4c(C#N)nn([C@H](C)c5ccc(Cl)cc5Cl)c4n3)C2)C1 (single isomer, unassigned) [Example 92] |
| < 100 | CC(=O)NCCN1CCC[C@@H](C2CN(c3cnc4c(C#N)nn([C@H](C)c5ccc(Cl)cc5Cl)c4n3)C2)C1 (single isomer, unassigned) [Example 93] |
| 100 to 500 | C[C@H](c1ccc(Cl)cc1Cl)n1nc(C#N)c2ncc(N3CC([C@@H]4CCN(CCCO)C4)C3)nc21 (single isomer, unassigned) [Example 94] |
| < 100 | C[C@H](c1ccc(Cl)cc1Cl)n1nc(C#N)c2ncc(N3CC([C@H]4CCN(CCCO)C4)C3)nc21 (single isomer, unassigned) [Example 95] |
| 100 to 500 | Cc1nn([C@H](C)c2ccc(Cl)cc2Cl)c2nc(N3CC([C@@H]4CCCN(CCNS(=O)(=O)C(C)C)C4)C3)cnc12 (single isomer, unassigned) [Example 96] |
| < 100 | Cc1nn([C@H](C)c2ccc(Cl)cc2Cl)c2nc(N3CC(C4CCCN(CCNS(=O)(=O)C(C)C)C4)C3)cnc12 (single isomer, unassigned) [Example 97] |
| 100 to 500 | Cc1nn([C@H](C)c2ccc(Cl)cc2Cl)c2nc(N3CC([C@@H]4CCCN(CCNS(C)(=O)=O)C4)C3)cnc12 (single isomer, unassigned) [Example 98] |
| < 100 | Cc1nn([C@H](C)c2ccc(Cl)cc2Cl)c2nc(N3CC([C@H]4CCCN(CCNS(C)(=O)=O)C4)C3)cnc12 (single isomer, unassigned) [Example 99] |
| < 100 | CC(=O)NCCN1CCC[C@H](C2CN(c3cnc4c(C)nn([C@H](C)c5ccc(Cl)cc5Cl)c4n3)C2)C1 (single isomer, unassigned) [Example 100] |
| < 100 | CC(=O)NCCN1CCC[C@@H](C2CN(c3cnc4c(C)nn([C@H](C)c5ccc(Cl)cc5Cl)c4n3)C2)C1 (single isomer, unassigned) [Example 101] |

The next lines start with the compound.

| Compound | IC50 [nM] |
| --- | --- |
| CC(O)CN1CCC[C@@H](C2CN(c3cnc4c(C#N)nn([C@H](C)c5ccc(Cl)cc5Cl)c4n3)C2)C1 (single isomer, unassigned) [Example 30] | < 100 |
| CC(O)CN1CCC[C@@H](C2CN(c3cnc4c(C#N)nn([C@H](C)c5ccc(Cl)cc5Cl)c4n3)C2)C1 (single isomer, unassigned) [Example 31] | < 100 |
| C[C@H](c1ccc(Cl)cc1Cl)n1nc(C(N)=O)c2ncc(N3CC([C@@H]4CCCN(CCCC(=O)O)C4)C3)nc21 (single isomer, unassigned) [Example 32] | 100 to 500 |
| C[C@H](c1ccc(Cl)cc1Cl)n1nc(C(N)=O)c2ncc(N3CC([C@H]4CCCN(CCCC(=O)O)C4)C3)nc21 (single isomer, unassigned) [Example 33] | < 100 |
| C[C@H](c1ccc(Cl)cc1Cl)n1nc(C#N)c2ncc(N3CC(C4CCCN(CCO)C4)C3)nc21 (single isomer, unassigned) [Example 35] | < 100 |
| CC(c1ccc(Cl)cc1Cl)n1nc(C#N)c2ncc(N3CC([C@@H]4CCCN(CCO)C4)C3)nc21 (single isomer, unassigned) [Example 36] | < 100 |
| Cc1nn([C@H](C)c2ccc(Cl)cc2Cl)c2nc(N3CC([C@H]4CCCN(CCO)C4)C3)ncc12 (single isomer, unassigned) [Example 38] | < 100 |
| Cc1nn([C@H](C)c2ccc(Cl)cc2Cl)c2nc(N3CC([C@@H]4CCCN(CCO)C4)C3)ncc12 (single isomer, unassigned) [Example 39] | > 500 |
| C[C@H](c1ccc(Cl)cc1Cl)n1nc(C(F)(F)F)c2ncc(N3CC([C@H]4CCCN(CCO)C4)C3)nc21 (single isomer, unassigned) [Example 43] | < 100 |
| C[C@H](c1ccc(Cl)cc1Cl)n1nc(C(F)(F)F)c2ncc(N3CC([C@@H]4CCCN(CCO)C4)C3)nc21 (single isomer, unassigned) [Example 44] | 100 to 500 |
| CC(C)C(=O)NCCN1CCC[C@@H](C2CN(c3cnc4c(C(F)(F)F)nn([C@H](C)c5ccc(Cl)cc5Cl)c4n3)C2)C1 (single isomer, unassigned) [Example 51] | 100 to 500 |
| CC(C)C(=O)NCCN1CCC[C@H](C2CN(c3cnc4c(C(F)(F)F)nn([C@H](C)c5ccc(Cl)cc5Cl)c4n3)C2)C1 (single isomer, unassigned) [Example 52] | < 100 |
| CC(=O)NCCN1CCC[C@@H](C2CN(c3cnc4c(C(F)(F)F)nn([C@H](C)c5ccc(Cl)cc5Cl)c4n3)C2)C1 (single isomer, unassigned) [Example 53] | 100 to 500 |
| CC(=O)NCCN1CCC[C@H](C2CN(c3cnc4c(C(F)(F)F)nn([C@H](C)c5ccc(Cl)cc5Cl)c4n3)C2)C1 (single isomer, unassigned) [Example 54] | < 100 |
| CNC(=O)CCCN1CCC[C@@H](C2CN(c3cnc4c(C#N)nn([C@H](C)c5ccc(Cl)cc5Cl)c4n3)C2)C1 (single isomer, unassigned) [Example 68] | 100 to 500 |
| CNC(=O)CCCN1CCC[C@H](C2CN(c3cnc4c(C#N)nn([C@H](C)c5ccc(Cl)cc5Cl)c4n3)C2)C1 (single isomer, unassigned) [Example 69] | < 100 |
| C[C@H](c1ccc(Cl)cc1Cl)n1nc(C#N)c2ncc(N3CC([C@@H]4CCCN(CC(C)(C)O)C4)C3)nc21 (single isomer, unassigned) [Example 70] | < 100 |
| C[C@H](c1ccc(Cl)cc1Cl)n1nc(C#N)c2ncc(N3CC([C@H]4CCCN(CC(C)(C)O)C4)C3)nc21 (single isomer, unassigned) [Example 71] | < 100 |
| CCCN1CCC[C@@H](C2CN(c3cnc4c(C#N)nn([C@H](C)c5ccc(Cl)cc5Cl)c4n3)C2)C1 (single isomer, unassigned) [Example 72] | 100 to 500 |
| CCCN1CCC[C@H](C2CN(c3cnc4c(C#N)nn([C@H](C)c5ccc(Cl)cc5Cl)c4n3)C2)C1 (single isomer, unassigned) [Example 73] | < 100 |
| C[C@H](c1ccc(Cl)cc1Cl)n1nc(C#N)c2ncc(N3CC([C@@H]4CCCN(CCCC(=O)N(C)C)C4)C3)nc21 (single isomer, unassigned) [Example 74] | 100 to 500 |
| C[C@H](c1ccc(Cl)cc1Cl)n1nc(C#N)c2ncc(N3CC([C@H]4CCCN(CCCC(=O)N(C)C)C4)C3)nc21 (single isomer, unassigned) [Example 75] | < 100 |
| CC(C)N1CCC[C@@H](C2CN(c3cnc4c(C#N)nn([C@H](C)c5ccc(Cl)cc5Cl)c4n3)C2)C1 (single isomer, unassigned) [Example 76] | 100 to 500 |
| CC(C)N1CCC[C@H](C2CN(c3cnc4c(C#N)nn([C@H](C)c5ccc(Cl)cc5Cl)c4n3)C2)C1 (single isomer, unassigned) [Example 77] | < 100 |
| C[C@H](c1ccc(Cl)cc1Cl)n1nc(C#N)c2ncc(N3CC([C@H]4CCCN(CCCC(N)=O)C4)C3)nc21 (single isomer, unassigned) [Example 78] | < 100 |
| C[C@H](c1ccc(Cl)cc1Cl)n1nc(C#N)c2ncc(N3CC([C@@H]4CCCN(CCCC(N)=O)C4)C3)nc21 (single isomer, unassigned) [Example 79] | 100 to 500 |
